# Tested on: P388
# Assay: Cytotoxicity against mouse P388 cells
# Assay type: functional
# Conditions: read-out: ED50 (the source's name)
smiles,measurement,value
CC1=C[C@@H]2c3c(c(O)c4ccccc4c3O[C@@H]3O[C@H](CO)[C@@H](O)[C@H](O)[C@H]3O)[C@@]3(O)c4ccccc4C(=O)[C@]2(/C=C/C(C)(C)O)[C@@]3(O)C1 [FIRMIANONE A],EC50,6.5 µM
CC1=C[C@@H]2c3c(c(O)c4ccccc4c3O[C@@H]3O[C@H](CO)[C@@H](O)[C@H](O)[C@H]3O)[C@@]3(O)c4cccc(O)c4C(=O)[C@]2(/C=C/C(C)(C)O)[C@@]3(O)C1 [FIRMIANONE B],EC50,8.1 µM
